Data reported in ChEMBL document CHEMBL4219034, “Synthesis, antimicrobial activity, structure-activity relationship and cytotoxic studies of a new series of functionalized (Z)-3-(2-oxo-2-substituted ethylidene)-3,4-dihydro-2H-benzo[b][1,4]oxazin-2-ones” (Bioorg Med Chem Lett, 2017).
Values after ≈ are worked out from the molar mass of the structure shown. Active and inactive are the calls of the source. The rule behind the calls is not given here.

Assays:
Streptomyces griseus [1] = test: Antibacterial activity against Streptomyces griseus MTCC 4734 incubated for 24 hrs by serial dilution method; type: functional
Staphylococcus aureus [2] = test: Antibacterial activity against Staphylococcus aureus MTCC 3381 incubated for 24 hrs by serial dilution method; type: functional
Bacillus subtilis [3] = test: Antibacterial activity against Bacillus subtilis MTCC 10619 incubated for 24 hrs by serial dilution method; type: functional
Escherichia coli [4] = test: Antibacterial activity against Escherichia coli MTCC 443 incubated for 24 hrs by serial dilution method; type: functional
Fusarium oxysporum [5] = test: Antifungal activity against Fusarium oxysporum ATCC 62506 incubated for 24 hrs by serial dilution method; type: functional
Aspergillus niger [6] = test: Antifungal activity against Aspergillus niger ATCC 9029 incubated for 24 hrs by serial dilution method; type: functional
Talaromyces funiculosus [7] = test: Antifungal activity against Penicillium funiculosum ATCC 11797 incubated for 24 hrs by serial dilution method; type: functional
Trichoderma reesei [8] = test: Antifungal activity against Trichoderma reesei ATCC 13631 incubated for 24 hrs by serial dilution method; type: functional
Streptomyces griseus [9] = test: Antibacterial activity against Streptomyces griseus MTCC 4734 at 100 ug/ml incubated for 12 hrs by agar disc diffusion assay; type: functional; conditions: for zone of inhibition at 100 µg/mL: MTCC 4734, 12 h, read-out: IZ
Staphylococcus aureus [10] = test: Antibacterial activity against Staphylococcus aureus MTCC 3381 at 100 ug/ml incubated for 12 hrs by agar disc diffusion assay; type: functional; conditions: for zone of inhibition at 100 µg/mL: MTCC 3381, 12 h, read-out: IZ
Bacillus subtilis [11] = test: Antibacterial activity against Bacillus subtilis MTCC 10619 at 100 ug/ml incubated for 12 hrs by agar disc diffusion assay; type: functional; conditions: for zone of inhibition at 100 µg/mL: MTCC 10619, 12 h, read-out: IZ
Escherichia coli [12] = test: Antibacterial activity against Escherichia coli MTCC 443 at 100 ug/ml incubated for 12 hrs by agar disc diffusion assay; type: functional; conditions: for zone of inhibition at 100 µg/mL: MTCC 443, 12 h, read-out: IZ
Fusarium oxysporum [13] = test: Antifungal activity against Fusarium oxysporum ATCC 62506 at 100 ug/ml incubated for 72 hrs by agar disc diffusion assay; type: functional; conditions: for zone of inhibition at 100 µg/mL: ATCC 62506, 72 h, read-out: IZ
Aspergillus niger [14] = test: Antifungal activity against Aspergillus niger ATCC 9029 at 100 ug/ml incubated for 72 hrs by agar disc diffusion assay; type: functional; conditions: for zone of inhibition at 100 µg/mL: ATCC 9029, 72 h, read-out: IZ
Talaromyces funiculosus [15] = test: Antifungal activity against Penicillium funiculosum ATCC 11797 at 100 ug/ml incubated for 72 hrs by agar disc diffusion assay; type: functional; conditions: for zone of inhibition at 100 µg/mL: ATCC 11797, 72 h, read-out: IZ
Trichoderma reesei [16] = test: Antifungal activity against Trichoderma reesei ATCC 13631 at 100 ug/ml incubated for 72 hrs by agar disc diffusion assay; type: functional
[17] = Cytotoxicity against mouse NIH/3T3 cells assessed as cell viability at 25 ug/ml after 72 hrs by MTT assay relative to control; type: cell-based, NIH3T3; conditions: read-out: Activity
[18] = Cytotoxicity against mouse NIH/3T3 cells assessed as cell viability at 50 ug/ml after 72 hrs by MTT assay relative to control; type: cell-based, NIH3T3; conditions: read-out: Activity
[19] = Cytotoxicity against mouse NIH/3T3 cells assessed as cell viability at 100 ug/ml after 72 hrs by MTT assay relative to control; type: cell-based, NIH3T3; conditions: read-out: Activity
[20] = Cytotoxicity against mouse NIH/3T3 cells assessed as cell viability at 250 ug/ml after 72 hrs by MTT assay relative to control; type: cell-based, NIH3T3; conditions: read-out: Activity
Streptomyces griseus [21] = test: Potency index, ratio of ampicillin MIC to compound MIC for Streptomyces griseus MTCC 4734 by serial dilution method; type: functional
Bacillus subtilis [22] = test: Potency index, ratio of ampicillin MIC to compound MIC for Bacillus subtilis MTCC 10619 by serial dilution method; type: functional
Bacillus subtilis [23] = test: Potency index, ratio of chloramphenicol MIC to compound MIC for Bacillus subtilis MTCC 10619 by serial dilution method; type: functional
Staphylococcus aureus [24] = test: Potency index, ratio of ampicillin MIC to compound MIC for Staphylococcus aureus MTCC 3381 by serial dilution method; type: functional

Compound: O=C1Oc2cc([N+](=O)[O-])ccc2N/C1=C\C(=O)C1CC1
- MIC (Streptomyces griseus [1]; MTCC 4734, 24 h): 3.12 µg/mL (≈ 11.4 µM)
- MIC (Staphylococcus aureus [2]; MTCC 3381, 24 h): 12.5 µg/mL (≈ 45.6 µM)
- MIC (Bacillus subtilis [3]; MTCC 10619, 24 h): 3.12 µg/mL (≈ 11.4 µM)
- MIC (Escherichia coli [4]; MTCC 443, 24 h): 25 µg/mL (≈ 91.2 µM)
- MIC (Fusarium oxysporum [5]; ATCC 62506, 24 h): 50 µg/mL (≈ 182 µM)
- MIC (Aspergillus niger [6]; ATCC 9029, 24 h): 100 µg/mL (≈ 365 µM)
- MIC (Talaromyces funiculosus [7]; ATCC 11797, 24 h): 100 µg/mL (≈ 365 µM)
- MIC (Trichoderma reesei [8]): inactive
- zone of inhibition at 100 µg/mL (Streptomyces griseus [9]): 28 mm
- zone of inhibition at 100 µg/mL (Staphylococcus aureus [10]): 10 mm
- zone of inhibition at 100 µg/mL (Bacillus subtilis [11]): 24 mm
- zone of inhibition at 100 µg/mL (Escherichia coli [12]): 18 mm
- zone of inhibition at 100 µg/mL (Fusarium oxysporum [13]): 10 mm
- zone of inhibition at 100 µg/mL (Aspergillus niger [14]): 8 mm
- zone of inhibition at 100 µg/mL (Talaromyces funiculosus [15]): 6 mm
- inhibition zone (IZ) (Trichoderma reesei [16]): inactive
- viability at 72 h, 25 ug/ml [17]: 94.3%
- viability at 72 h, 50 ug/ml [18]: 90.9%
- viability at 72 h, 100 ug/ml [19]: 83.3%
- viability at 72 h, 250 ug/ml [20]: 76.3%
- Ratio (Streptomyces griseus [21]): 4
- Ratio (Bacillus subtilis [22]): 8
- Ratio (Bacillus subtilis [23]): 2

Compound: O=C1Oc2ccc([N+](=O)[O-])cc2N/C1=C\C(=O)c1ccc(C2CCCCC2)cc1
- MIC (Streptomyces griseus [1]; MTCC 4734, 24 h): 12.5 µg/mL (≈ 31.9 µM)
- MIC (Staphylococcus aureus [2]; MTCC 3381, 24 h): 6.25 µg/mL (≈ 15.9 µM)
- MIC (Bacillus subtilis [3]; MTCC 10619, 24 h): 12.5 µg/mL (≈ 31.9 µM)
- MIC (Escherichia coli [4]; MTCC 443, 24 h): 25 µg/mL (≈ 63.7 µM)
- MIC (Fusarium oxysporum [5]; ATCC 62506, 24 h): 50 µg/mL (≈ 127 µM)
- MIC (Aspergillus niger [6]; ATCC 9029, 24 h): 25 µg/mL (≈ 63.7 µM)
- MIC (Talaromyces funiculosus [7]; ATCC 11797, 24 h): 25 µg/mL (≈ 63.7 µM)
- MIC (Trichoderma reesei [8]; ATCC 13631, 24 h): 25 µg/mL (≈ 63.7 µM)
- zone of inhibition at 100 µg/mL (Streptomyces griseus [9]): 22 mm
- zone of inhibition at 100 µg/mL (Staphylococcus aureus [10]): 20 mm
- zone of inhibition at 100 µg/mL (Bacillus subtilis [11]): 16 mm
- zone of inhibition at 100 µg/mL (Escherichia coli [12]): 18 mm
- zone of inhibition at 100 µg/mL (Fusarium oxysporum [13]): 10 mm
- zone of inhibition at 100 µg/mL (Aspergillus niger [14]): 18 mm
- zone of inhibition at 100 µg/mL (Talaromyces funiculosus [15]): 16 mm
- zone of inhibition at 100 µg/mL (Trichoderma reesei [16]; ATCC 13631, 72 h, read-out: IZ): 20 mm
- viability at 72 h, 25 ug/ml [17]: 98.2%
- viability at 72 h, 50 ug/ml [18]: 89.1%
- viability at 72 h, 100 ug/ml [19]: 82.5%
- viability at 72 h, 250 ug/ml [20]: 79.2%
- Ratio (Staphylococcus aureus [24]): 2

Compound: O=C1Oc2ccccc2N/C1=C\C(=O)c1ccc(C2CCCCC2)cc1
- MIC (Streptomyces griseus [1]; MTCC 4734, 24 h): 50 µg/mL (≈ 144 µM)
- MIC (Staphylococcus aureus [2]): inactive
- MIC (Bacillus subtilis [3]; MTCC 10619, 24 h): 6.25 µg/mL (≈ 18 µM)
- MIC (Escherichia coli [4]; MTCC 443, 24 h): 100 µg/mL (≈ 288 µM)
- MIC (Fusarium oxysporum [5]): inactive
- MIC (Aspergillus niger [6]; ATCC 9029, 24 h): 50 µg/mL (≈ 144 µM)
- MIC (Talaromyces funiculosus [7]; ATCC 11797, 24 h): 50 µg/mL (≈ 144 µM)
- MIC (Trichoderma reesei [8]): inactive
- zone of inhibition at 100 µg/mL (Streptomyces griseus [9]): 10 mm
- inhibition zone (IZ) (Staphylococcus aureus [10]): inactive
- zone of inhibition at 100 µg/mL (Bacillus subtilis [11]): 22 mm
- zone of inhibition at 100 µg/mL (Escherichia coli [12]): 8 mm
- inhibition zone (IZ) (Fusarium oxysporum [13]): inactive
- zone of inhibition at 100 µg/mL (Aspergillus niger [14]): 6 mm
- zone of inhibition at 100 µg/mL (Talaromyces funiculosus [15]): 6 mm
- inhibition zone (IZ) (Trichoderma reesei [16]): inactive
- Ratio (Bacillus subtilis [22]): 4

Compound: O=C1Oc2ccc(Cl)cc2N/C1=C\C(=O)c1cccc2ccccc12
- MIC (Streptomyces griseus [1]): inactive
- MIC (Staphylococcus aureus [2]): inactive
- MIC (Bacillus subtilis [3]): inactive
- MIC (Escherichia coli [4]): inactive
- MIC (Fusarium oxysporum [5]): inactive
- MIC (Aspergillus niger [6]): inactive
- MIC (Talaromyces funiculosus [7]): inactive
- MIC (Trichoderma reesei [8]): inactive
- inhibition zone (IZ) (Streptomyces griseus [9]): inactive
- inhibition zone (IZ) (Staphylococcus aureus [10]): inactive
- inhibition zone (IZ) (Bacillus subtilis [11]): inactive
- inhibition zone (IZ) (Escherichia coli [12]): inactive
- inhibition zone (IZ) (Fusarium oxysporum [13]): inactive
- inhibition zone (IZ) (Aspergillus niger [14]): inactive
- inhibition zone (IZ) (Talaromyces funiculosus [15]): inactive
- inhibition zone (IZ) (Trichoderma reesei [16]): inactive

Compound: Cc1ccc2c(c1)N/C(=C\C(=O)c1ccc(C3CCCCC3)cc1)C(=O)O2
- MIC (Streptomyces griseus [1]): inactive
- MIC (Staphylococcus aureus [2]): inactive
- MIC (Bacillus subtilis [3]): inactive
- MIC (Escherichia coli [4]): inactive
- MIC (Fusarium oxysporum [5]; ATCC 62506, 24 h): 50 µg/mL (≈ 138 µM)
- MIC (Aspergillus niger [6]; ATCC 9029, 24 h): 100 µg/mL (≈ 277 µM)
- MIC (Talaromyces funiculosus [7]): inactive
- MIC (Trichoderma reesei [8]): inactive
- inhibition zone (IZ) (Streptomyces griseus [9]): inactive
- inhibition zone (IZ) (Staphylococcus aureus [10]): inactive
- inhibition zone (IZ) (Bacillus subtilis [11]): inactive
- inhibition zone (IZ) (Escherichia coli [12]): inactive
- zone of inhibition at 100 µg/mL (Fusarium oxysporum [13]): 12 mm
- inhibition zone (IZ) (Aspergillus niger [14]): inactive
- inhibition zone (IZ) (Talaromyces funiculosus [15]): inactive
- inhibition zone (IZ) (Trichoderma reesei [16]): inactive
